In PubChem BioAssay (NCI):
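1) Cells in 96-well plates. 2) Compound, 48 h, 5 concentrations. 3) Linear interpolation between surrounding doses. 4) Unreached endpoint = highest concentration. At the TGI there is no net growth.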

What was measured:
Experiment in all cases: NCI anticancer screen, dose series, 48 h
DLD-1 colon = tested on: DLD-1 colon
LXFL 529 NSCLC = tested on: LXFL 529 NSCLC
NCI-H460 lung = tested on: NCI-H460 lung
XF 498 CNS = tested on: XF 498 CNS
KM20L2 colon = tested on: KM20L2 colon
DMS 114 small cell lung = tested on: DMS 114 small cell lung
DMS 273 small cell lung = tested on: DMS 273 small cell lung
A498 renal = tested on: A498 renal
RXF-631 renal = tested on: RXF-631 renal
COLO 205 colon = tested on: COLO 205 colon
M19-MEL melanoma = tested on: M19-MEL melanoma
SNB-78 CNS = tested on: SNB-78 CNS
HOP-18 NSCLC = tested on: HOP-18 NSCLC

SMILES | TGI (DLD-1 colon) [µM] | TGI (LXFL 529 NSCLC) [µM] | TGI (NCI-H460 lung) [µM] | TGI (XF 498 CNS) [µM] | TGI (KM20L2 colon) [µM] | TGI (DMS 114 small cell lung) [µM] | TGI (DMS 273 small cell lung) [µM] | TGI (A498 renal) [µM] | TGI (RXF-631 renal) [µM] | TGI (COLO 205 colon) [µM] | TGI (M19-MEL melanoma) [µM] | TGI (SNB-78 CNS) [µM] | TGI (HOP-18 NSCLC) [µM]
O=c1[nH]c2cc([N+](=O)[O-])ccc2nc1/C(=N/Nc1ccccc1)C(O)c1ccco1 (stereo not given) | > 100 | > 100 | > 100 | > 100 | > 100 | > 100 | > 100 | > 100 | > 100 | > 100 | > 100 |  | 
CC(C)(C)C1CCC2c3c([nH]c4ncccc34)C3C(=O)N(c4ccccc4)C(=O)C3C2C1 (stereo not given) | > 100 | > 100 | > 100 | > 100 | > 100 | > 100 | > 100 |  |  | > 100 | > 100 | > 100 | > 100
COc1ccc2c3c([nH]c(=O)c2c1C(=O)O)-c1ccccc1CC3 | > 100 | > 100 | > 100 | > 100 | > 100 | > 100 | > 100 | > 100 | > 100 | > 100 |  | > 100 | 
N#Cc1ccc(/C=C(/C(=O)c2ccccc2)c2ccccc2)cc1 | 13 | 20.4 | 47.5 | 16.4 | 31.2 | 31.5 | 26.2 | 40 | 29.8 | 37.3 | 31.8 | 14.3 | > 55.1
COc1cc2c(oc(=O)c3c4occc4cc(OC)c23)c2cccc(OCc3ccccc3)c12 | > 100 | > 100 | > 100 | > 100 | > 100 | > 100 | > 100 | 83.4 |  | > 100 | > 100 | > 100 | > 100
O=C(O)[C@@H]1OCCOCCO[C@@H](C(=O)O)[C@H](C(=O)O)OCCOCCO[C@H]1C(=O)O | > 61.8 | > 100 | > 100 | > 100 | > 100 | > 92.3 | > 100 | > 100 |  | > 100 | > 100 | > 100 | > 100
